According to paper PMC11394712 (Foods, 2024):
In brackets after ≈: the same amount, converted by molar mass.

Tests used:
[1] = tested on: porcine pancreatic α-amylase and amyloglucosidase (rice starch digestion); test: In vitro digestion of genistein–starch mixed system (RDS, SDS, RS contents); assay type: biochemical, porcine; Aspergillus niger
Method: A particular volume of mixed enzyme solution was prepared in which the specific activities of porcine pancreatic α-amylase and amyloglucosidase were 150 U/mL and 15 U/mL, respectively, and kept at 37 °C. […] This mixed system was added to 25 mL of mixed enzyme solution to receive incubation at 37 °C and 160 r/min in a shaking water bath. Aliquots from the reaction solution were removed at 0, 20, and 120 min, followed by being assayed using a glucose assay kit (Megazyme). Below is the calculation equation of the rapidly digestible starch (RDS), slowly digestible starch (SDS), and resistant starch (RS) contents:(1) RDS(%)=(G20−G0)×0.9/TS×100 (2) SDS(%)=(G120−G20)×0.9/TS×100 (3) RS(%)=TS−RDS−SDS/TS×100
In the above equations, G0 represents the content of free glucose within starch; G20 and G120 are the quantities of glucose generated by the mixed enzyme solution after incubation for 20 and 120 min, respectively; TS represents the total starch content in the sample, mg; and 0.9 is the glucose conversion coefficient.

[2] = biological target: T1, α-Amylase from porcine pancreas (Sus scrofa, UniProt P00690); test: Inhibition rate of α-amylase (glucose assay kit, 510 nm); assay type: biochemical
T1 construct: purchased Sigma-Aldrich (Shanghai, China); host or cells: porcine pancreas
T1 sequence (P00690 16-511): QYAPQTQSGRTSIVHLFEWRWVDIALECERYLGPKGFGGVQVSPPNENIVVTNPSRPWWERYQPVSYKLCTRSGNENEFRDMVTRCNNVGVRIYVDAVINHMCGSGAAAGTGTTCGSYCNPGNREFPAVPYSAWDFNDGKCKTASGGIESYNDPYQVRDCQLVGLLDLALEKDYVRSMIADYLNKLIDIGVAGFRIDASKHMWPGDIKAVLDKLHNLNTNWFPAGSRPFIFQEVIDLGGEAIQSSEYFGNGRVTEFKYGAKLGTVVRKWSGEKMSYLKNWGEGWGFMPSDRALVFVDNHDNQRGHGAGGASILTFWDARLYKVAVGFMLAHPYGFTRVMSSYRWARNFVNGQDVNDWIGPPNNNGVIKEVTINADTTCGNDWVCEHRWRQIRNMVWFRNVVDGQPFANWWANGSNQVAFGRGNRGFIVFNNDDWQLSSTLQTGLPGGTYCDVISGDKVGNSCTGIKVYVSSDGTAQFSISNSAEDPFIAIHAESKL
Method: For α-amylase, the method of Qin et al. [22] was used with slight modifications (the enzymatic reaction time was different). […] A 5 mL aliquot of the above solution was taken to undergo 10 min of incubation at 37 °C, following by the addition of 5 mL of starch solution (20 mg/mL) that was prepared and kept at 37 °C. Following 15 min of incubation at 37 °C, the reaction solution was removed, and a glucose assay kit was employed for assaying the glucose produced after starch hydrolysis through measuring the changes in the absorbance at 510 nm. […] IC50 was calculated using SPSS 25.0 (IBM) nonlinear regression fitting. (4) Inhibition ratio (%) = 1−ODsample−ODsample blank/ODenzyme solution−ODbuffer solution×100 where ODsample, ODsample blank, and ODenzyme solution represent the absorbance of the solution containing both the sample and the enzyme, the sample solution, and the enzyme solution, respectively. ODbuffer solution is the absorbance of the buffer solution.

[3] = biological target: T1, α-Amylase from porcine pancreas; test: Fluorescence quenching, binding and thermodynamic analysis, α-amylase; details: for Kd: KD dissociation constant; for Kd / KQ static quenching constant / n binding sites / ΔG free energy change / ΔH enthalpy change / ΔS entropy change / KA apparent quenching rate constant: α-amylase
Method: For fluorescence spectroscopic studies, we followed the protocol in the study of Yu et al.. […] Fluorescence quenching parameters were calculated using the following equations:(8) Fa=Fm⋅e^(Aex+Aem)/2 where Fm denotes the measured fluorescence data; Fa represents the adjusted fluorescence data; and Aex and Aem denote the absorbance at the excitation and emission wavelengths, respectively.
Stern–Volmer dynamic impact quenching equation:(9) F0/F=1+KAτ0[Q]
Binding and thermodynamic analyses were used for elucidating the mechanisms of enzyme inhibition, including the inhibition of fluorophores by quenchers. […] (13) lg(F0−F/F)=lgKC+nlg[Q] where F0, F, and [Q] are identical to those in Equation (9). KC is the binding constant (L/mol), and n denotes the average number of binding sites. (14) lnKQ2/KQ1=ΔH/R(1/T1−1/T2) (15) ΔG=−RTlnK=ΔH−TΔS

[4] = biological target: T1, α-Amylase from porcine pancreas; test: Reversibility and enzyme inhibition kinetics, α-amylase (Lineweaver–Burk); assay type: biochemical
Method: The protocol of Dong et al. was followed with minor modifications (the substrate concentration was different). […] The assay mixture received 10 min of incubation at 37 °C. The mixture underwent 15 min of incubation after being added with starch solution (5 mL, 20 mg/mL), followed by the determination of the absorbance change. […] The mixture of the above solution with 2 mL of pNPG solution (25.0 mmol/L) underwent 15 min of incubation, followed by the measurement of its absorbance at 405 nm.
The method in the study of Jiang et al. was modified slightly in this study (the concentration of the inhibitor was different). […] Thereafter, the assay mixture added with 5 mL of 10, 20, 40, 50, and 100 mg/mL of starch solution underwent 15 min of incubation at 37 °C. The assay was performed using a glucose assay kit, together with the identification of the absorbance change at 510 nm.
The assay mix was incubated further for 15 min at 37 °C. The experimenters terminated the reaction by adding 6 mL of sodium carbonate solution (0.2 mol/L). The absorbance change of the solution was monitored colorimetrically at 405 nm. […] The equations below were adopted for calculating Km, KIC, and KIN, which, respectively, represented the Michaelis constant, competitive inhibition constant, and non-competitive inhibition constant, in mg/mL [28].
Lineweaver–Burk:(5) 1/V=Km/Vmax⋅1/[S]+1/Vmax

α-glucosidase = details: ref 39 (Zheng et al.); cited from earlier work
α-amylase = details: ref 39 (Zheng et al.); cited from earlier work
[5] = addition of genistein (0.4 mg/mL, 10%) vs starch alone
[6] = genistein 0.4 mg/mL (10.0 mg per 100 mg rice starch), 37 °C

O=c1c(-c2ccc(O)cc2)coc2cc(O)cc(O)c12 [genistein, Genistein]
increase of RS content [1, 5]: 7.18% | increase of SDS content [1, 5]: 30.34% | reduction of RDS content in starch [1, 5]: 37.52% | RDS content of the mixed system [1, 6]: 20.63% | RS content of the mixed system [1, 6]: 9.14% | SDS content of the mixed system [1, 6]: 70.23% | IC50 [2]: 2550 µM | type of fluorescence quenching of α-amylase ([3]; 25, 31, 37 °C): static quenching | Kd ([3]; 25 °C): 760 µM | Kd ([3]; 31 °C): 170 µM | Kd ([3]; 37 °C): 110 µM | KQ static quenching constant ([3]; 25 °C): 540 L/mol | n binding sites ([3]; 25 °C): 1.19 | ΔG free energy change ([3]; 25 °C): -3.415 kcal/mol | ΔH enthalpy change ([3]; 25 °C): -0.11 kcal/mol | ΔS entropy change ([3]; 25 °C): 50.65 J·mol^−1·K^−1 | KA apparent quenching rate constant ([3]; 31 °C): 5.32e+11 M⁻¹ s⁻¹ | KQ static quenching constant ([3]; 31 °C): 530 L/mol | n binding sites ([3]; 31 °C): 0.97 | ΔG free energy change ([3]; 31 °C): -3.717 kcal/mol | ΔH enthalpy change ([3]; 31 °C): -1.44 kcal/mol | ΔS entropy change ([3]; 31 °C): 31.97 J·mol^−1·K^−1 | KA apparent quenching rate constant ([3]; 37 °C): 4.84e+11 M⁻¹ s⁻¹ | KQ static quenching constant ([3]; 37 °C): 480 L/mol | n binding sites ([3]; 37 °C): 0.77 | ΔG free energy change ([3]; 37 °C): -3.81 kcal/mol | ΔH enthalpy change ([3]; 37 °C): -0.504 kcal/mol | ΔS entropy change ([3]; 37 °C): 44.59 J·mol^−1·K^−1 | type of inhibition of α-amylase ([4]; genistein 0, 1, 2 mg/mL): reversible and non-competitive | Ki ([4]; read-out: KIN (non-competitive inhibition constant), α-amylase (converted)): 50500 µM

COc1cc(/C=C/C(=O)O)ccc1O [ferulic acid]
IC50 α-glucosidase (α-glucosidase): 866 µg/mL (≈ 4.46 mM) | IC50 α-amylase (α-amylase): 622 µg/mL (≈ 3.2 mM)
